Experimental data reported in US20200131196A1 (Mount Tam Therapeutics, Inc., priority 2017, published 2020).

Key:
[1] = tested on: A101D; experiment: OncoPanel cell proliferation assay, A101D; type: cell-based, human; settings: for EC50: read-out: Cell Count EC50; for GI50: read-out: Cell Count GI50
Description: (§1) Cells were grown in RPMI 1640, 10% FBS, 2 mM L-alanyl-L-glutamine, 1 mM Na pyruvate, or a special medium. Cells were seeded into 384-well plates and incubated in a humidified atmosphere of 5% CO2 at 37° C. Compounds were added the day following cell seeding. At the same time, a time zero untreated cell plate was generated. After a 3-day incubation period, cells were fixed and stained to allow fluorescence imaging of nuclei. Compounds (1 mM stock solutions) were serially diluted in half-log steps from the highest test concentration ([…]), and assayed over 10 concentrations with a maximum assay concentration of 0.1% DMSO. Automated fluorescence microscopy was carried out using a Molecular Devices ImageXpress Micro XL high-content imager, and images were collected with a 4× objective. 16-bit TIFF images were acquired and analyzed with MetaXpress 5.1.0.41 software.
(§2) Cell proliferation was measured by the fluorescence intensity of an incorporated nuclear dye. The output is referred to as the relative cell count, where the measured nuclear intensity is transformed to percent of control (POC) using the following formula: […]
(§3) Cellular response parameters were calculated using nonlinear regression to a sigmoidal single-site dose response model:
(§4) EC50 is the test compound concentration at the curve inflection point or half the effective response (parameter C of the fitted curve solution). GI50 is the concentration needed to reduce the observed growth by half (midway between the curve maximum and the time zero value). “Cell Count Activity Area” is an estimate of the integrated area above the curve (Barretina, et al. The Cancer Cell Line Encyclopedia enables predictive modelling of anticancer drug sensitivity. Nature 483: 603-607). […] In rare instances, values <0 or >10 may be observed. […] Curve-fitting, calculations, and report generation was performed using a custom data reduction engine and MathIQ based software (AIM).

[2] = tested on: SK-MEL-28; experiment: OncoPanel cell proliferation assay, SK-MEL-28; type: cell-based, human; settings: for GI50: read-out: Cell Count GI50; for IC50: read-out: Cell Count IC50
Description: as §1, §2, §3, §4

[3] = tested on: PC-3; experiment: OncoPanel cell proliferation assay, PC-3; settings: for EC50: PC-3, read-out: Cell Count EC50; for GI50: PC-3, read-out: Cell Count GI50; for Cell Count Activity Area: PC-3
Description: Cells were seeded into 384-well plates and incubated in a humidified atmosphere of 5% CO2 at 37° C. Compounds were added the day following cell seeding. At the same time, a time zero untreated cell plate was generated. After a 3-day incubation period, cells were fixed and stained to allow fluorescence imaging of nuclei. Compounds (1 mM stock solutions) were serially diluted in half-log steps from the highest test concentration (1 micromol), and assayed over 10 concentrations with a maximum assay concentration of 0.1% DMSO. Automated fluorescence microscopy was carried out using a Molecular Devices ImageXpress Micro XL high-content imager, and images were collected with a 4× objective. 16-bit TIFF images were acquired and analyzed with MetaXpress 5.1.0.41 software.
GI50 is the concentration needed to reduce the observed growth by half (midway between the curve maximum and the time zero value). […] In rare instances, values <0 or >10 may be observed. […] Curve-fitting, calculations, and report generation was performed using a custom data reduction engine and MathIQ based software (AIM).

Row | EC50 ([2]; Homo sapiens, read-out: Cell Count EC50) [nM] | IC50 ([3]; Homo sapiens, PC-3, read-out: Cell Count IC50) [nM] | SMILES | Cell Count Activity Area [1] | EC50 ([1]; Homo sapiens) [nM] | GI50 ([1]; Homo sapiens) [nM] | IC50 ([1]; Homo sapiens, read-out: Cell Count IC50) [nM] | Cell Count Activity Area [2] | GI50 ([2]; Homo sapiens) [nM] | IC50 ([2]; Homo sapiens) [nM] | EC50 ([3]; Homo sapiens) [nM] | GI50 ([3]; Homo sapiens) [nM] | Cell Count Activity Area [3]
1 | 0.654 | > 1000 | CO[C@H]1C[C@@H]2CC[C@@H](C)[C@@](O)(O2)C(=O)C(=O)N2CCCC[C@H]2C(=O)O[C@H]([C@H](C)C[C@@H]2CC[C@@H](O)[C@H](OC)C2)CC(=O)[C@H](C)/C=C(\C)[C@@H](O)[C@@H](OC)C(=O)[C@H](C)C[C@H](C)/C=C/C=C/C=C/1C [Rapamycin, reference compound] | 2.92 | 0.184 | 0.721 | > 1000 | 2.50 | 98.7 | > 1000 | 0.23 | 2.63 | 3.57
2 |  |  | CN[C@@H]1C[C@H]2O[C@@](C)([C@@H]1OC)n1c3ccccc3c3c4c(c5c6ccccc6n2c5c31)C(=O)NC4 [Staurosporine, reference compound] | 4.56 | 7.02 | 2.65 |  | 2.81 | 32.1 | 64.3 | 0.903 | 1.07 | 4.67
